Assay results published in patent US20230024096A1, “BIFUNCTIONAL COMPOUNDS FOR THE TREATMENT OF CANCER” (Hoffmann-La Roche Inc., priority 2019, published 2023).

Molecular target: T1, SMARCA2 (Homo sapiens, UniProt P51531)
T1 construct: endogenous in cells; host or cells: HT1080 (CRISPR HiBiT knock-in clone, generated in house)
Assay: SMARCA2 HiBiT degradation assay (cellular)
Assay type: cell-based
Details: table head names A549; for DC50: 6 h incubation, HiBiT-tagged SMARCA2, luminescence read-out, read-out: HiBit A549 SMARCA2 IP (nM) 6 h; for Emax: A549, 6 h incubation, Emax = amount of residual protein remaining in the cell following compound treatment

T1 sequence (P51531 whole entry): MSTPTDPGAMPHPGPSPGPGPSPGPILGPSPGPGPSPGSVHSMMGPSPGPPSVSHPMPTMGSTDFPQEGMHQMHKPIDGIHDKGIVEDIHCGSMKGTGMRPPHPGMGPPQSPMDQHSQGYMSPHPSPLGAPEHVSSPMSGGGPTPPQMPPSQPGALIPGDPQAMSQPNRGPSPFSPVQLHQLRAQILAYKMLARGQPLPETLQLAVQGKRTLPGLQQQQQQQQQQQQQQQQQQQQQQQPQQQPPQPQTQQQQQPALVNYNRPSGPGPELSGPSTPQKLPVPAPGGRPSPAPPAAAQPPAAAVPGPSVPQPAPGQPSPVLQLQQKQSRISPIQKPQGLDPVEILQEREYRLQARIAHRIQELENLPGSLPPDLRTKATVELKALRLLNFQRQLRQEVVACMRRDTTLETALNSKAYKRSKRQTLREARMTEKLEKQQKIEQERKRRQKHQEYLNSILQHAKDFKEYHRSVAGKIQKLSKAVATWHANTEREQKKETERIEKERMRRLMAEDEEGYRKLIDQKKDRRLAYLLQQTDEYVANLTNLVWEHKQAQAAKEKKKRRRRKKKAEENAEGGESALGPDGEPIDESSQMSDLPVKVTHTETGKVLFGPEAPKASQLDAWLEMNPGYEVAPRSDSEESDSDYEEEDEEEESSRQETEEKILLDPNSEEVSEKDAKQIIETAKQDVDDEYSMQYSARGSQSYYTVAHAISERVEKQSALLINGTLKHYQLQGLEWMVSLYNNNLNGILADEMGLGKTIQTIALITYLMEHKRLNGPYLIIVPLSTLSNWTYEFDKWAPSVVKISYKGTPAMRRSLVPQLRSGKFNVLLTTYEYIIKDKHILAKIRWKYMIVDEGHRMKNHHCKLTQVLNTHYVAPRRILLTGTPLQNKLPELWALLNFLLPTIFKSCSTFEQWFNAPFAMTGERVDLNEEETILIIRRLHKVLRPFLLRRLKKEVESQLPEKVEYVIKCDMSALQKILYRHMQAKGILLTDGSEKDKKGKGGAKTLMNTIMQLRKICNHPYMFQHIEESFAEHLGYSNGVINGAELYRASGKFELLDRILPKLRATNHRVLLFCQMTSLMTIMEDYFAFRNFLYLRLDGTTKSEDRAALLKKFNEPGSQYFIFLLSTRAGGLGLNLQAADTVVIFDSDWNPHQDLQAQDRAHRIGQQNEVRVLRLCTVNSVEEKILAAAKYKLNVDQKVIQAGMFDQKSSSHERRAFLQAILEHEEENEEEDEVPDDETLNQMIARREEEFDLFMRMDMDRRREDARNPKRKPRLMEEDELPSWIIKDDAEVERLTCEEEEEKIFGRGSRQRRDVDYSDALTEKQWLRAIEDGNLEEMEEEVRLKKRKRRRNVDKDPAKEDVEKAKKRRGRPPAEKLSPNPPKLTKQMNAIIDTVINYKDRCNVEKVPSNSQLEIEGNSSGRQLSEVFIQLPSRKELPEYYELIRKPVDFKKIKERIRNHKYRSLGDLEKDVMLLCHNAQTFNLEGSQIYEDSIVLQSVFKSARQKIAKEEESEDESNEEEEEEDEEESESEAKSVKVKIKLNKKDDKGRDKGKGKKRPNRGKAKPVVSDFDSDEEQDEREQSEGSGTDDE

| Structure (SMILES) | DC50 [nM] | Emax [%] |
| --- | --- | --- |
| Nc1nnc(-c2ccccc2O)cc1N1CCC(C(=O)N2CC3(CCN(CCC4CCN(c5ccc6c(c5)C(=O)N(C5CCC(=O)NC5=O)C6=O)CC4)C3)C2)(c2ccccc2)CC1 (stereo not drawn) [Example 191, 5-(4-(2-(2-(1-(3-amino-6-(2-hydroxyphenyl)pyridazin-4-yl)-4-phenylpiperidine-4-carbonyl)-2,6-diazaspiro[3.4]octan-6-yl)ethyl)piperidin-1-yl)-2-(2,6-dioxopiperidin-3-yl)isoindoline-1,3-dione] | 30 | 37 |
| Nc1nnc(-c2ccccc2O)cc1N1CCC(C(=O)N2CC3(CCN(CCOC4CCN(c5ccc6c(c5)C(=O)N(C5CCC(=O)NC5=O)C6=O)CC4)C3)C2)(c2ccccc2)CC1 (stereo not drawn) [Example 192, 5-[4-[2-[2-[1-[3-amino-6-(2-hydroxyphenyl)pyridazin-4-yl]-4-phenyl-piperidine-4-carbonyl]-2,7-diazaspiro[3.4]octan-7-yl]ethoxy]-1-piperidyl]-2-(2,6-dioxo-3-piperidyl)isoindoline-1,3-dione] | 57 | 34 |
| Nc1nnc(-c2ccccc2O)cc1N1CCC(OCC(=O)NC2CCN(C(=O)CN3CCC(c4ccc(OC5CCC(=O)NC5=O)cc4)CC3)CC2)(c2ccccc2)CC1 (stereo not drawn) [Example 194, 2-[[1-[3-amino-6-(2-hydroxyphenyl)pyridazin-4-yl]-4-phenyl-4-piperidyl]oxy]-N-[1-[2-[4-[4-[(2,6-dioxo-3-piperidyl)oxy]phenyl]-1-piperidyl]acetyl]-4-piperidyl]acetamide] | 67 | 61 |
| Nc1nnc(-c2ccccc2O)cc1N1CCC(OCC(=O)NC2CCN(C(=O)C3CCN(c4ccc5c(c4)C(=O)N(C4CCC(=O)NC4=O)C5=O)CC3)CC2)(c2ccccc2)CC1 (stereo not drawn) [Example 196, 2-[[1-[3-amino-6-(2-hydroxyphenyl)pyridazin-4-yl]-4-phenyl-4-piperidyl]oxy]-N-[1-[1-[2-(2,6-dioxo-3-piperidyl)-1,3-dioxo-isoindolin-5-yl]piperidine-4-carbonyl]-4-piperidyl]acetamide] | 51 | 65 |
| Nc1nnc(-c2ccccc2O)cc1N1CCN(c2cccc(OCCN3CCN(C(=O)C4CCN(c5ccc6c(c5)C(=O)N(C5CCC(=O)NC5=O)C6=O)CC4)CC3)c2)C2(CCC2)C1 (stereo not drawn) [Example 197, 5-[4-[4-[2-[3-[8-[3-amino-6-(2-hydroxyphenyl)pyridazin-4-yl]-5,8-diazaspiro[3.5]nonan-5-yl]phenoxy]ethyl]piperazine-1-carbonyl]-1-piperidyl]-2-(2,6-dioxo-3-piperidyl)isoindoline-1,3-dione] | 46 | 30 |
| Nc1nnc(-c2ccccc2O)cc1N1CC2CCC(C1)N2c1cccc(OCCN2CCN(C(=O)CN3CCC(c4ccc(OC5CCC(=O)NC5=O)cn4)CC3)CC2)c1 (stereo not drawn) [Example 198, 3-[[6-[1-[2-[4-[2-[3-[3-[3-amino-6-(2-hydroxyphenyl)pyridazin-4-yl]-3,8-diazabicyclo[3.2.1]octan-8-yl]phenoxy]ethyl]piperazin-1-yl]-2-oxo-ethyl]-4-piperidyl]-3-pyridyl]oxy]piperidine-2,6-dione] | 277 | 68 |
